From patent publication US8779142B2, “Azabicyclo compound and salt thereof” (Taiho Pharmaceutical Co., Ltd., priority 2009, dated 2014)

Key:
SK-BR-3 cells = experiment: Measurement of cell growth inhibition (crystal violet staining method); format: cell-based; details: Homo sapiens
[1] = molecular target: human HSP90 alpha protein (HSP90 N-terminal protein, amino acids 2-236) (Homo sapiens (Human), UniProt P07900); experiment: Measurement of HSP90-binding activity (AlphaScreen competitive assay, biotin-labeled geldanamycin); details: concentration inhibiting binding of biotin-labeled geldanamycin (40 nM) to purified HSP90 to 50% of control; read-out: HSP-binding activity IC50
[2] = breast cancer SK-BR-3 cells, 72 hr culture with test substance

Row | SMILES | IC50 (SK-BR-3 cells; [2]) [nM] | IC50 [1] [nM] | IC50 (SK-BR-3 cells; SK-BR-3, 72 h) [nM]
1 | Cc1cn(-c2ccc(C(N)=O)c(NCCCNC(C)C)c2)c2nccc(-c3cnc4ccccc4c3)c12 [Example 60, 2-[3-(Isopropylamino)propylamino]-4-{3-methyl-4-(quinolin-3-yl)-1H-pyrrolo[2,3-b]pyridin-1-yl}benzamide] | 1530 | 1370 | 
2 | COc1ccc2c(c1)cc(C)n2-c1ccc(C(N)=O)c(Nc2ccccc2)c1 [Comparative Example 5, reference compound] |  |  | > 10000
3 | COc1cc2ccn(-c3ccc(C#N)c(Nc4ccccc4)c3)c2cc1OC [Comparative Example 3, reference compound] | > 10000 |  | 
4 | COc1ccc(-c2ccnc3c2c(C(C)C)nn3-c2ccc(C(N)=O)c(N[C@H]3CC[C@H](O)CC3)c2)cn1 [Example 18, 2-(Trans-4-hydroxycyclohexylamino)-4-{3-isopropyl-4-(6-methoxypyridin-3-yl)-1H-pyrazolo[3,4-b]pyridin-1-yl}benzamide] | 590 |  | 
5 | COc1cc2ccn(-c3ccc(C(N)=O)c(Nc4ccccc4)c3)c2cc1OC [Comparative Example 4, reference compound] |  |  | > 10000
6 | CC(C)c1nn(-c2ccc(C(N)=O)c(N[C@H]3CC[C@H](O)CC3)c2)c2nccc(-c3cnc4ccccc4c3)c12 [Example 6, 2-(Trans-4-hydroxycyclohexylamino)-4-{3-isopropyl-4-(quinolin-3-yl)-1H-pyrazolo[3,4-b]pyridin-1-yl}benzamide] | 30 |  | 

Second part, led by results:

Row | IC50 (SK-BR-3 cells; [2]) [nM] | IC50 [1] [nM] | SMILES | IC50 (SK-BR-3 cells; SK-BR-3, 72 h) [nM]
7 | 690 | 400 | Cc1cc(C(N)=O)ccc1-n1nc(C(C)C)c2c(-n3cnc(-c4cccnc4)c3)ccnc21 [Example 135, 4-{3-Isopropyl-4-(4-(pyridin-3-yl)-1H-imidazol-1-yl)-1H-pyrazolo[3,4-b]pyridin-1-yl}-3-methylbenzamide] | 
8 | 430 | 280 | CC(C)c1cc(C(N)=O)ccc1-n1nc(C(C)C)c2c(-n3cnc(-c4cccnc4)c3)ccnc21 [Example 137, 3-Isopropyl-4-{3-isopropyl-4-(4-(pyridin-3-yl)-1H-imidazol-1-yl)-1H-pyrazolo[3,4-b]pyridin-1-yl}benzamide] | 
9 | 190 | 760 | CC(C)Nc1cc(-n2nc(C(C)C)c3c(-n4cnc(-c5cccnc5)c4)ccnc32)ccc1C(N)=O [Example 140, 4-{3-Isopropyl-4-(4-(pyridin-3-yl)-1H-imidazol-1-yl)-1H-pyrazolo[3,4-b]pyridin-1-yl}-2-(isopropylamino)benzamide] | 
10 | 110 | 140 | Cn1cc(-c2cn(-c3ccnc4c3c(C(F)(F)F)nn4-c3ccc(C(N)=O)cc3NC3CCCC3)cn2)cn1 [Example 166, 3-(Cyclopentylamino)-4-{4-(4-(1-methyl-1H-pyrazol-4-yl)-1H-imidazol-1-yl)-3-(trifluoromethyl)-1H-pyrazolo[3,4-b]pyridin-1-yl}benzamide] | 
11 | 20 | 160 | CC(C)Nc1cc(-n2nc(C(F)(F)F)c3c(-n4cnc(-c5cnn(C)c5)c4)ccnc32)ccc1C(N)=O [Example 160, 2-(Isopropylamino)-4-{4-(4-(1-methyl-1H-pyrazol-4-yl)-1H-imidazol-1-yl)-3-(trifluoromethyl)-1H-pyrazolo[3,4-b]pyridin-1-yl}benzamide] | 
12 | 150 |  | COc1cc(C(N)=O)ccc1-n1nc(C(C)C)c2c(-n3cnc(-c4cnn(C)c4)c3)ccnc21 [Example 128, 4-{3-Isopropyl-4-(4-(1-methyl-1H-pyrazol-4-yl)-1H-imidazol-1-yl)-1H-pyrazolo[3,4-b]pyridin-1-yl}-3-methoxybenzamide] | 
13 | 510 |  | Cc1cn(-c2ccc(C(N)=O)c(S[C@H]3CC[C@H](O)CC3)c2)c2nccc(-c3cnc4ccccc4c3)c12 [Example 67, 2-(Trans-4-hydroxycyclohexylthio)-4-{3-methyl-4-(quinolin-3-yl)-1H-pyrrolo[2,3-b]pyridin-1-yl}benzamide] | 
14 | 360 |  | Cc1cn(-c2ccc(C(N)=O)c(N[C@H]3CC[C@H](N)CC3)c2)c2nccc(-c3cnc4ccccc4c3)c12 [Example 61, 2-(Trans-4-aminocyclohexylamino)-4-{3-methyl-4-(quinolin-3-yl)-1H-pyrrolo[2,3-b]pyridin-1-yl}benzamide] | 
